For this experiment, the system named is Pseudomonas aeruginosa. Put plainly: Antibacterial activity against Pseudomonas aeruginosa MTCC 2453 assessed as inhibition of bacterial growth at 200 ug/ml incubated overnight by spectrophotometry relative to control. It counts as functional.

One may read the inhibition as the drop in the measured response relative to a control, in per cent. Turning to `Clc1ccc2c(NCC/N=C/c3ccc4ccccc4n3)ccnc2c1`, the inhibition at 200 µg/mL worked out at 100%.

Values taken from ChEMBL document CHEMBL6078713, “Synthesis and mechanistic studies of 4-aminoquinoline-Isatin molecular hybrids and Schiff's bases as promising antimicrobial agents” (Eur J Med Chem, 2025).
